Measured values: ChEMBL document CHEMBL4420078, “Sos1 inhibitors for cancer treatment” (2016)
The source made the active and inactive calls. The calls are words filed in the database; no cut-off is given here.

Tests used:
[1] = biological target: T1, Son of sevenless homolog 1 (Mus musculus) (UniProt Q62245); assay: Inhibition of SOS1 in overnight serum-starved and H-RasG12V transduced mouse MEF assessed as reduction in Akt phosphorylation at 10 to 40 uM pre-incubated for 2 hrs before EGF stimulation for 5 mins by Western blot analysis; format: cell-based
T1 sequence (whole entry): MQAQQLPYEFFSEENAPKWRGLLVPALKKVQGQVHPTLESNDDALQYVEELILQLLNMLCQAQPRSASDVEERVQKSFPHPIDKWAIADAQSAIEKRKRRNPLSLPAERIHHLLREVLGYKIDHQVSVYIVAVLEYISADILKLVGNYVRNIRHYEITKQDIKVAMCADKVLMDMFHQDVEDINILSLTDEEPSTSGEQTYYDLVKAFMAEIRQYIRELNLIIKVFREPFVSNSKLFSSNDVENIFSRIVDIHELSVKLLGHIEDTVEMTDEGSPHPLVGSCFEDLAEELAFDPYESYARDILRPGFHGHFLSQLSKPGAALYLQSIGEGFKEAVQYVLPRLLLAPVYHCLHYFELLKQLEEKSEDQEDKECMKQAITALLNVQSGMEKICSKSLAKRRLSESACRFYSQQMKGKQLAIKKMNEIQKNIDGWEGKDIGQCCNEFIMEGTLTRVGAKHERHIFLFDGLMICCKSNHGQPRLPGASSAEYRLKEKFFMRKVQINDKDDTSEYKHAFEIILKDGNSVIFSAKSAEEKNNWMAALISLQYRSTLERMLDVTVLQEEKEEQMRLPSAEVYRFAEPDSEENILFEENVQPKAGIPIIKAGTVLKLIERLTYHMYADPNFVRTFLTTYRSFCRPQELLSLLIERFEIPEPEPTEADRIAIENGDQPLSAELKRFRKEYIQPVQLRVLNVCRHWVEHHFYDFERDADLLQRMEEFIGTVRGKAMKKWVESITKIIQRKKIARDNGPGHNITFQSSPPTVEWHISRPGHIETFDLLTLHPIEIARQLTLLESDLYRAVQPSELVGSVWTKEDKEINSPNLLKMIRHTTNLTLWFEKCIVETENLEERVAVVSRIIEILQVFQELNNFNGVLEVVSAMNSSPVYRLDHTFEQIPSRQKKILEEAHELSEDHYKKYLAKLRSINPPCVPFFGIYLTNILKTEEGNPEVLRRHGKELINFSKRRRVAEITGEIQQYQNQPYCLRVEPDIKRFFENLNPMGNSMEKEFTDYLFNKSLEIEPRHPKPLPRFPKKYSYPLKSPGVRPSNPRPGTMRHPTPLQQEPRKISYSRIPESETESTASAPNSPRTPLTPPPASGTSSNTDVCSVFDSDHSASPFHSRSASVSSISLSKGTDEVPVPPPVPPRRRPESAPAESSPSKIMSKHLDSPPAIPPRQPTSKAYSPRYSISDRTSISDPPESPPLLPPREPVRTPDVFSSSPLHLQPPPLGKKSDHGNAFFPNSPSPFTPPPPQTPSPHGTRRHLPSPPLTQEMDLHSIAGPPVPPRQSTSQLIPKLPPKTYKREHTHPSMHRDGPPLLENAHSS

[2] = biological target: T2, Son of sevenless homolog 1 (Homo sapiens) (UniProt Q07889); assay: Inhibition of N-terminal 6x-His-tagged recombinant human SOS1 catalytic domain (residues 564 to 1049 residues) expressed in Escherichia coli BL21 (DE3) assessed as disruption of allosteric SOS1/Ras Y64A mutant:GTPgammaS interaction at 20 to 200 uM by Western lot analysis
T2 sequence (whole entry): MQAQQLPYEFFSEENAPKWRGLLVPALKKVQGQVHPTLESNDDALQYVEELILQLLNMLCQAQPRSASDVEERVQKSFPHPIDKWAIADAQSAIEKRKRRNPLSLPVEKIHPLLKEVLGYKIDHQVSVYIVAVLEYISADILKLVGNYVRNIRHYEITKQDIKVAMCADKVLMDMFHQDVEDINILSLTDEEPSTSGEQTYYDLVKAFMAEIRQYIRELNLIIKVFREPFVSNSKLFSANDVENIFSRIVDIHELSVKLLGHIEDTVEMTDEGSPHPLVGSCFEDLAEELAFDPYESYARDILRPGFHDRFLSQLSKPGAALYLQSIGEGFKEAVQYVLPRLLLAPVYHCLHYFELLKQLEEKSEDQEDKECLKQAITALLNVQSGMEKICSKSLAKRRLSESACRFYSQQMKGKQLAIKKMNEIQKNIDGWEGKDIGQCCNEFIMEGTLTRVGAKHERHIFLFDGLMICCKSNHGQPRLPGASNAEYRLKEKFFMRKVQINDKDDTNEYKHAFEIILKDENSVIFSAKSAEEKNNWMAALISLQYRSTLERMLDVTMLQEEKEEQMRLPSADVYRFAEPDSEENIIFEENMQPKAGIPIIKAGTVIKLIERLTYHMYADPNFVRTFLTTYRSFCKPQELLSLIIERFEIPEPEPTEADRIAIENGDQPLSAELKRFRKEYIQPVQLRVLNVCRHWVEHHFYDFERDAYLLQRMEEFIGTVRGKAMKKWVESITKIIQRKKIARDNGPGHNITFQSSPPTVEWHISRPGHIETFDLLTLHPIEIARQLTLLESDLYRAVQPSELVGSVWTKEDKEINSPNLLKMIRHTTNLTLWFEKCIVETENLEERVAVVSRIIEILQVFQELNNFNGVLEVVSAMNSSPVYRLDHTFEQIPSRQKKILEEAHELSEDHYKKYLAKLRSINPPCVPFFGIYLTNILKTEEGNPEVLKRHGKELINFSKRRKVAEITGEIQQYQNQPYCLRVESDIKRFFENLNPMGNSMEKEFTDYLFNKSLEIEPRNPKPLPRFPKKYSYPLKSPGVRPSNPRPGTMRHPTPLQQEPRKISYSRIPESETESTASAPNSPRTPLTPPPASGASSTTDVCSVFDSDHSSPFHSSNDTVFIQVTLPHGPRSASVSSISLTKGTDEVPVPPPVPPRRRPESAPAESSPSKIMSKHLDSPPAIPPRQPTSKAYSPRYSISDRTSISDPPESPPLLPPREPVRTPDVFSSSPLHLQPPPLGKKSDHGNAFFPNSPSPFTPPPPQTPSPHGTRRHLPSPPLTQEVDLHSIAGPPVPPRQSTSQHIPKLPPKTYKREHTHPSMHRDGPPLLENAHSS

MIA PaCa-2 [3] = assay: Effect on GAPDH protein levels in overnight serum-starved human MIAPaCa2 cells at 20 to 40 uM by Western blotting analysis; format: ADME, cell-based; conditions: mia paca-2, 40 µM
MIA PaCa-2 [4] = assay: Effect on total ERK protein levels in overnight serum-starved human MIAPaCa2 cells at 20 to 40 uM by Western blotting analysis; format: ADME, cell-based; conditions: mia paca-2, 40 µM
[5] = biological target: T2, Son of sevenless homolog 1 (Homo sapiens); assay: Inhibition of SOS1 in human DU145 cells assessed as reduction in cell proliferation at 40 to 100 uM incubated for 3 days and measured every 24 hrs by MTS assay; format: cell-based

How did the inhibition [1] turn out when `O=C1Oc2ccccc2C(=O)/C1=C/N1C(=O)/C(=C/c2ccc([N+](=O)[O-])cc2)SC1=S` was run?
Its inhibition is “Active”.

With `O=[N+]([O-])c1ccccc1/C=C/C=C1c2ccccc2-c2ccccc21` as the compound, how does the inhibition [2] read?
Its inhibition is “Active”.

What about the Activity (MIA PaCa-2 [3]) of the same compound?
The Activity was “Non-Toxic”.

And the Activity (MIA PaCa-2 [4])?
The Activity was “Non-Toxic”.

`O=C(O)c1cc2c3c(c1)C1C=CCC1C(c1ccccc1Cl)N3CC1CC=CC21` (stereo not given) was tested. Which inhibition [5] did it give?
The inhibition was “Active”.
